These results are taken from patent US10011609B2, “Heterocyclic compounds” (CADILA HEALTHCARE LIMITED, priority 2013, dated 2018).

The structures appear in SMILES notation. Where two headings read alike, the source gives them in different places.

In data set [1] the target is T1, GPR40 (Homo sapiens, UniProt O14842).
T1 construct: host or cells: HEK293 (ChemiBrite cell line)
As to the kind of experiment: Promoter-luciferase assay to measure GPR40 activation (HEK293 cells stably transfected with GPR40 cDNA). The format is cell-based. The conditions noted are these: HEK293 cells stably transfected with GPR40, 5xSRE-luciferase. The protocol:
GPR40 activation was measured in HEK293 cells stably transfected with GPR40 cDNA (ChemiBrite cell lines from Millipore, US). These cells were transiently transfected with a pGL2 (Promega Inc.) plasmid having a 5×SRE sequence, cloned 5′ of a luciferase gene along with a β-galactosidase plasmid as normalizing control. Briefly, 35000 cells/well were seeded in a 96 well plates. After overnight incubation at 37° C., the cells were washed with PBS and transfected with the 5×-SRE-Luciferase plasmid and the β-galactosidase plasmid. 6 h post transfection, media was removed and replaced with fresh media with different concentration of drugs and incubated for 16 more hours. The cells were then lysed in 50 μL of Glo-Lysis buffer (Promega) for 30 min at room temperature. The cells were then centrifuged and lysates were collected. Luciferase activity was measured by adding 100 μL of luciferase substrate (Promega) in 20 μL of lysate and measuring the luminescence in luminometer. The […] activity was also measured by adding 20 μL of lysates with 20 μL of β-galactosidase buffer (Promega) and monitoring the absorbance at 415 nm. Luciferase values were divided by β-galactosidase values to normalize transfection efficiency (Table 2)

Data set [2] deals with T1, GPR40. The data set can be described thus: Intracellular Ca2+ flux fluorescent assay (FLIPR). The format is cell-based. How it is done: To determine the EC50 of the compounds on intracellular Ca^2+ flux using a fluorescent assay (FLIPR)
GPR40 expressing stable cells were seeded at 25,000 numbers/well. 50 μL/well of assay buffer (20 mM HEPES+1×HBSS) was added to the cells and the cells were cultured for 20 min at 37° C. Cells were loaded with 50 μL/well of Calcium 5 dye and cultured for 45 min at 37° C.
The cells were challenged with compounds at a top concentration of 1000 nM (1:3 step down dilution—10 points). Intracellular Calcium flux was assessed by use of Screen Works 3.1 tool and statistical analysis was carried using Graph Pad Prism 4

For the next data set, the system named is n-STZ rat model. The data set can be described thus: Oral glucose tolerance test in n-STZ rat model. The format is in vivo, Wistar rat. The note with it: for % improvement in AUC glucose vs. control: n-STZ rat; for ED50: po, n-STZ rat OGTT model. How it is done: Primary Screening Protocol for GRP40 agonist test compounds in n-STZ rat model
Wistar rat pups of 1-2 day old injected with Streptozotocin (STZ) at 120 mg/kg dose by intraperitoneal route. All pups allowed grow normally and at the age of 12-14 week they were screen for glucose intolerance by performing the oral glucose tolerance test by tail clip method using glucometer. Animals showing glucose intolerance were selected for evaluation of test compound. Three to seven days of rest period animals were kept on overnight fasting. […] Animals were administered with test compound and then 15-60 min after the compound administration “O” min blood glucose levels were measured and immediately glucose load at 2 g/kg was administered orally. Blood glucose levels were measured at 30, 60 and 120 min after glucose load using by tail clip method using glucometer. Blood was also collected at 10 min after glucose load for measurement of insulin levels. Glucose area under the curve (AUC) was calculated using Graph Pad Prism software and % reduction in AUC-glucose vs vehicle treated control was calculated (Table 3).

The nature of another data set: Pharmacokinetics in rats. The note with it: rat, in vivo; for MRT: read-out: Mean residence time; for Vd: read-out: Vss; for bioavailability: po 3 mg/Kg vs iv 1 mg/Kg.
[3] abbreviates: read-out: EC50 in Luciferase assay.
Where [4] appears, read: GPR40 expressing stable cells, intracellular Ca2+ flux, read-out: EC50 in FLIPR assay.
Setting [5] is: iv 1 mg/Kg, read-out: T1/2, iv (converted).
Setting [6] is: po 3 mg/Kg, read-out: T1/2, po (converted).

T1 sequence (O14842 whole entry, species assumed): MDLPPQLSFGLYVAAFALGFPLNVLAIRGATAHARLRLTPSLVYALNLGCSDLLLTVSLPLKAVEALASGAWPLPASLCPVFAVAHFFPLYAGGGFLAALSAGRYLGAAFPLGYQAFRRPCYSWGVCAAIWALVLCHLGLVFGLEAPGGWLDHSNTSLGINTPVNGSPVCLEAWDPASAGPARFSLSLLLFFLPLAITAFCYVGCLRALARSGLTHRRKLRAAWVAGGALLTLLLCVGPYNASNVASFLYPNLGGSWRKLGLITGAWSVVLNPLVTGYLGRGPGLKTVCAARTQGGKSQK

One may read the EC50 as the concentration needed to bring the measured effect to its halfway point. Take `CC#C[C@@H](CC(=O)O)c1ccc(OCc2cccc(CN3CCc4sc(C)cc4C3)c2)cc1` [Compound 7, (S)-3-(4-((3-((2-methyl-6,7-dihydrothieno[3,2-c]pyridin-5(4H)-yl)methyl)benzyl)oxy)phenyl)hex-4-ynoic acid]: the EC50 on GPR40 [1] (setting [3]) stood at 1.49 nM; on GPR40 [2] (setting [4]) it was 1.8 nM. Moreover, the entries for the “% improvement in AUC glucose vs. control” value in the data set on n-STZ rat model (0.1 mg/Kg per oral), in the data set with n-STZ rat model (1 mg/Kg per oral) and in the data set with n-STZ rat model (10 mg/Kg per oral) were 30.4%, 46.0% and 57.0%, respectively.
Take `CC#C[C@@H](CC(=O)[O][Ca][O]C(=O)C[C@H](C#CC)c1ccc(OCc2cccc(CN3CCc4nc(C)sc4C3)c2)cc1)c1ccc(OCc2cccc(CN3CCc4nc(C)sc4C3)c2)cc1` [Compound 17, calcium (S)-3-(4-((3-((2-methyl-6,7-dihydrothiazolo[4,5-c]pyridin-5(4H)-yl)methyl)benzyl)oxy)phenyl)hex-4-ynoate(S)-3-(4-((3-((2-methyl-6,7-dihydrothiazolo[4,5-c]pyridin-5(4H)-yl)methyl)benzyl)oxy)phenyl)hex-4-ynoate]: the EC50 on GPR40 [1] (EC50 in Luciferase assay) is 4.7 nM; at GPR40 [2], 10.2 nM. Also, the “% improvement in AUC glucose vs. control” value with n-STZ rat model (1 mg/Kg per oral) was 37.1%; in the data set with n-STZ rat model (10 mg/Kg per oral) it was 44.7%.
As to `CC#C[C@@H](CC(=O)O)c1ccc(OCc2cccc(CN3CCc4sc(Br)cc4C3)c2)cc1` [Compound 19, Calcium (S)-3-(4-((3-((2-bromo-6,7-dihydrothieno[3,2-c]pyridin-5(4H)-yl)methyl)benzyl)oxy)phenyl)hex-4-ynoate], at GPR40 [2] (setting [4]), the EC50 was determined as 2.32 nM.
Regarding `CC#C[C@@H](CC(=O)O)c1ccc(OCc2cccc(CN3Cc4cnn(C)c4C3)c2)cc1` [Compound 22, (S)-3-(4-((3-((1-Methylpyrrolo[3,4-c]pyrazol-5(1H,4H,6H)-yl)methyl)benzyl)oxy)phenyl)hex-4-ynoic acid], the results for the EC50 at GPR40 [1] (setting [3]) and on GPR40 [2] (setting [4]) were 31.5 nM and 36.3 nM, respectively.
By AUC(0-t) is commonly meant exposure summed from dosing to a finite time, without extrapolation to infinity. A high value points to high exposure. The term clearance denotes a measure of how efficiently the substance is removed, as volume per time. Low readings indicate inefficient removal, high ones efficient removal. By Cmax is commonly meant the maximum level reached in the sampled fluid or tissue. A word on the Tmax: it is the time from dosing to the highest level. As a reminder, the bioavailability is dose-corrected exposure relative to a reference, in per cent. For orientation: ED50 means the midpoint of the dose-response relation. High values mean weaker potency, low ones greater potency. In turn, `CC#C[C@@H](CC(=O)[O][Ca][O]C(=O)C[C@H](C#CC)c1ccc(OCc2cccc(CN3CCc4oc(C5CC5)nc4C3)c2)cc1)c1ccc(OCc2cccc(CN3CCc4oc(C5CC5)nc4C3)c2)cc1` [Compound 64, Calcium (S)-3-(4-((3-((2-cyclopropyl-6,7-dihydrooxazolo[4,5-c]pyridin-5(4H)-yl)methyl)benzyl)oxy)phenyl)hex-4-ynoate] yielded an EC50 on GPR40 [1] (EC50 in Luciferase assay) of 1.2 nM. Also, in “Pharmacokinetics in rats” (iv 1 mg/Kg), the area under the curve AUC(0-t) is 56100 ± 4350 ng·h/mL, the C0 amounted to 10200 ± 1540 ng/mL, the clearance was determined as 0.27 ± 0.03 mL/min/kg and the MRT stood at 10.1 ± 1.36 h. Besides, in “Pharmacokinetics in rats” (iv 1 mg/Kg), the Vd came out at 0.16 ± 0.01 L/kg. Also, in the data set “Pharmacokinetics in rats” (setting [5]), the half-life was 7.77 ± 1.07 h. For the same compound, in the data set “Pharmacokinetics in rats” (po 3 mg/Kg), the Cmax was found to be 8060 ± 2190 ng/mL, the Tmax was found to be 2 h and the MRT is 6.59 ± 0.93 h. In the data set “Pharmacokinetics in rats”, this compound came in with a bioavailability of 45%. Further, the half-life in the data set “Pharmacokinetics in rats” (setting [6]) was 4.51 ± 0.61 h. Moreover, the “% improvement in AUC glucose vs. control” value in the data set on n-STZ rat model (1 mg/Kg per oral) was found to be 46%. Also, the “% improvement in AUC glucose vs. control” value with n-STZ rat model (10 mg/Kg per oral) is listed as 47%. In addition, it took a dose of 0.09 mg/kg to reach the 50% effect level with n-STZ rat model (ED50).
Regarding `CC#C[C@@H](CC(=O)[O][Ca][O]C(=O)C[C@H](C#CC)c1ccc(OCc2cccc(CN3CCc4sc(C)cc4C3)c2)cc1)c1ccc(OCc2cccc(CN3CCc4sc(C)cc4C3)c2)cc1` [Compound 16, calcium(S)-3-(4-((3-((2-methyl-6,7-dihydrothieno[3,2-c]pyridin-5(4H)-yl)methyl)benzyl)oxy)phenyl)hex-4-ynoate(S)-3-(4-((3-((2-methyl-6,7-dihydrothieno[3,2-c]pyridin-5(4H)-yl)methyl)benzyl)oxy)phenyl)hex-4-ynoate], a half-maximal response on GPR40 [1] (EC50 in Luciferase assay) (EC50) required 4.6 nM. Further, the EC50 on GPR40 [2] stood at 2.72 nM. In “Pharmacokinetics in rats” (iv 1 mg/Kg), the AUC(0-t) was 3180 ± 400 ng·h/mL, the C0 came out at 5020 ± 370 ng/mL, the clearance was 5.26 ± 0.65 mL/min/kg and the MRT is 1.09 ± 0.07 h. For the same compound, the Vd in the data set “Pharmacokinetics in rats” (iv 1 mg/Kg) worked out at 0.34 ± 0.03 L/kg. Besides, the half-life in “Pharmacokinetics in rats” (setting [5]) was 1.45 ± 0.12 h. In “Pharmacokinetics in rats” (po 3 mg/Kg), the concentration peaked (Cmax) at 5920 ± 2100 ng/mL, the Tmax was found to be 0.25 h and the MRT worked out at 2.19 ± 0.31 h. The same compound had a bioavailability in the data set “Pharmacokinetics in rats” of 83%. Further, in the data set “Pharmacokinetics in rats” (setting [6]), the half-life was 1.77 ± 0.42 h. For the same compound, in the data set with n-STZ rat model (1 mg/Kg per oral), the “% improvement in AUC glucose vs. control” value is reported as 44.6%. Also, the “% improvement in AUC glucose vs. control” value in the data set on n-STZ rat model (10 mg/Kg per oral) came out at 59.6%. In the data set with n-STZ rat model, this compound had an ED50 of 0.05 mg/kg.
In the case of `CC#C[C@@H](CC(=O)O)c1ccc(OCc2cccc(CN3CCc4sccc4C3)c2)cc1` [Compound 1, (S)-3-(4-((3-((6,7-dihydrothieno[3,2-c]pyridin-5(4H)yl)methyl)benzyl)oxy)phenyl)hex-4-ynoic acid], the EC50 on GPR40 [1] (setting [3]) was found to be 7.5 nM; at GPR40 [2] (setting [4]), 117 nM.
